The star is where a group is joined. ξ: configuration not given here. Lipoyl(6ξ) = O=C(CCCCC1CCSS1)*
Key:
16HBE cells = assay: In vitro transfection, Metridia luciferase assay in 16HBE cells; type: cell-based, human
Description: (§1) Preparation of IVT-mRNA/pDNA containing binary and ternary complexes: Stock solutions of P704 (5 mg/ml) and synthetic compound (1 mg/ml) were prepared in nuclease-free water (NF water) and stored at 4° C. P704 based binary complexes (P704/IVT-mRNA or P704/pDNA) were prepared by mixing equal volumes of diluted P704 stock solution with IVT-mRNA or pDNA solution at the desired concentration in 2× Tyrode's solution. Ternary complexes were generated via two-steps incubation. Briefly, P704 solutions at certain concentration (defined as weight/weight (w/w) ratio between P704 and nucleic acids) in NF-water were mixed with equal volume of synthetic compound solution at specific concentration (defined as N/P ratio, namely the […] between nitrogen residues in synthetic compound and nucleic acids phosphate groups). After 20 min incubation at room temperature (RT), same volumes of nucleic acid (IVT-mRNA or pDNA) solution in NF-water were added to the above P704/synthetic compound solution and mixed gently by pipetting up and down several times. Subsequently, complexes were incubated for another 20 min at RT prior to further use. IVT-mRNA or pDNA solutions in NF-water were complexed with brPEI (25 kDa) at an optimum N/P ratio, the resulting complexes were served as a control polyplex. As for control lipoplex, Lipofectamine® 2000 complexes were prepared according to the manufacturer's instructions using optimum concentration. In order to prepare DOTAP/DOPE liposomes, a lipid film was formed by removing the chloroform solvent in DOTAP/DOPE mixture solution under nitrogen atmosphere. The lipid film is hydrated with NF-water to make the final concentration 10 mM DOTAP/DOPE. The DOTAP/DOPE liposome formulation was formed by mixing 250 μl of pDNA encoding for firefly luciferase and cystic fibrosis transmembrane conductance regulator (fLUC-CFTR pDNA) (150 μg) containing solution and 250 μl diluted DOTAP/DOPE solution (190 μl of 10 mM DOTAP/DOPE liposome and 60 μl NF-water). The mix solution was incubated at RT for 20 min prior to further use.
In vitro transfection: For the luciferase assay, cells were seeded at a density of 1.8×10^4/well (BEAS-2B) or 3.5×10^4/well (16HBE) in 96-well plates 24 h before transfection to reach 60-80% confluence. Following removal of growth medium, cells were rinsed with DPBS (Gibco, Germany). 170 μl of fresh serum-free OptiMEM (Gibco, Germany) were added per well, and subsequently 30 μl of IVT-mRNA or pDNA containing complexes prepared, as described above, corresponding to 400 ng IVT-mRNA or pDNA per well, were added in replicates of five. After 4 h of incubation at 37° C. in a humidified 5% CO2-containing atmosphere, the transfection medium was replaced with culture medium supplemented with 10% FBS and 1% (v/v) penicillin/streptomycin. Luciferase activity in 50 μl supernatants from transfected cells was assayed with Metridia luciferase substrate (coelenterazine, Invivogen, France) after 24 h using a FLUOstar microplate reader (BMG Labtech, Germany) and its activity is expressed in relative light units (RLU). In all cases each sample was measured on at least two other occasions to ensure the reproducibility of the data. […]
(§2) The concentration of P704 in ternary complexes for treatment of BEAS-2B cells was 50 (w/w) and the concentration of P704 in ternary complexes for treatment of 16HBE cells was 63 (w/w). The N/P ratios of the compounds in ternary complexes were as follows:
16HBE cells: Compound 0 (DL) at 20, compounds 1 and 11 at 15, compounds 2 and 3 at 10, compounds 4, 6, 8, and 9 at 5, compounds 5, 7, and 10 at 2.5.
The same transfection procedure as described above was applied.
The concentration of P704 in ternary complexes was 63 (w/w). The N/P ratio of the compounds in certain ternary complexes was as follows:
16HBE cells: Compound 1, 8, and 11 at 20; compound 0 (DL) and 3 at 10; compound 2 at 7.5; compounds 4, 6, 9, and 10 at 5, compounds 5 and 7 at 2.5. […]

BEAS-2B cells = assay: In vitro transfection, Metridia luciferase assay in BEAS-2B cells; type: cell-based, human
Description: as §1
In vitro transfection: For the luciferase assay, cells were seeded at a density of 1.8×10^4/well (BEAS-2B) or 3.5×10^4/well (16HBE) in 96-well plates 24 h before transfection to reach 60-80% confluence. Following removal of growth medium, cells were rinsed with DPBS (Gibco, Germany). 170 μl of fresh serum-free OptiMEM (Gibco, Germany) were added per well, and subsequently 30 μl of IVT-mRNA or pDNA containing complexes prepared, as described above, corresponding to 400 ng IVT-mRNA or pDNA per well, were added in replicates of five. After 4 h of incubation at 37° C. in a humidified 5% CO2-containing atmosphere, the transfection medium was replaced with culture medium supplemented with 10% FBS and 1% (v/v) penicillin/streptomycin. Luciferase activity in 50 μl supernatants from transfected cells was assayed with Metridia luciferase substrate (coelenterazine, Invivogen, France) after 24 h using a FLUOstar microplate reader (BMG Labtech, Germany) and its activity is expressed in relative light units (RLU). In all cases each sample was measured on at least two other occasions to ensure the reproducibility of the data.
The same transfection procedure as described above was applied. Luciferase activity was expressed in RLU. The data are given as the mean±standard deviation (SD) of the mean (n>5) in FIGS. 12a to 12k.
as §2
BEAS-2B cells: Compound 0 (DL) at 30, compound 1 at 20, compounds 3 and 11 at 15, compounds 4 and 6 at 10, compounds 2 and 9 at 5, compounds 5, 7, 8 and 10 at 2.5.
The same transfection procedure as described above was applied. Luciferase activity was expressed in RLU. […]

| Substance | pDNA expression compared with compound 3 containing ternary complex (16HBE cells; other days than day 2) | pDNA expression relative to compound 3 containing ternary complex (BEAS-2B cells; MetLuc pDNA, FIG. 14a) | IVT-mRNA transfection efficiency of P704 ternary complex (in words) (16HBE cells; MetLuc mRNA, P704 63 (w/w), optimum N/P, FIG. 17b) | pDNA transfection efficiency of P704 ternary complex (in words) (16HBE cells; MetLuc pDNA, P704 63 (w/w), optimum N/P, FIG. 14b) | IVT-mRNA transfection efficiency of P704 ternary complex (in words) (BEAS-2B cells; MetLuc mRNA, P704 63 (w/w), optimum N/P, FIG. 17a) | pDNA transfection efficiency of P704 ternary complex (in words) (BEAS-2B cells; MetLuc pDNA, P704 50 (w/w), optimum N/P, FIG. 14a) |
| --- | --- | --- | --- | --- | --- | --- |
| NH2-VKRKKKPKKRRRRKKWK(DL-lipoic acid)-CONH2 (H-VKRKKKPKKRRRRKKWK(Lipoyl(6ξ))-NH2; SMILES CC(C)[C@H](N)C(=O)N[C@@H](CCCCN)C(=O)N[C@@H](CCCNC(=N)N)C(=O)N[C@@H](CCCCN)C(=O)N[C@@H](CCCCN)C(=O)N[C@@H](CCCCN)C(=O)N1CCC[C@H]1C(=O)N[C@@H](CCCCN)C(=O)N[C@@H](CCCCN)C(=O)N[C@@H](CCCNC(=N)N)C(=O)N[C@@H](CCCNC(=N)N)C(=O)N[C@@H](CCCNC(=N)N)C(=O)N[C@@H](CCCNC(=N)N)C(=O)N[C@@H](CCCCN)C(=O)N[C@@H](CCCCN)C(=O)N[C@@H](Cc1c[nH]c2ccccc12)C(=O)N[C@@H](CCCCNC(=O)CCCCC1CCSS1)C(N)=O) [compound 0 (DL)] | significantly higher | ~5 times | – | – | – | – |
| KETWWETWWTEWWTEW-KKKKRRRRRKKKK-GACSERSMNFCG (KETWWETWWTEWWTEWKKKKRRRRRKKKKGACSERSMNFCG) [compound 9] | – | – | more superior to other counterparts | overwhelming signals | more superior to other counterparts | highest transfection efficiency |
